Assay type in all cases: ADME, organism-based
Data set [1] relates to Homo sapiens. Description: (§1) Mean pharmacokinetic parameters for Rosiglitazone following single oral doses to 32 healthy fasted or fed subjects. Further details: dose 8 mg, dose 2 mg, dose 1 mg, route oral. To be noted: in vivo, po, dosed compound id 50, dosed compound name ROSIGLITAZONE, gender male and female, regimen Single dose, tissue Plasma.
Data set [2] in a line: as §1. To be noted: human, in vivo; dietary status Fasting, dose 1 mg, dosed compound id 50, dosed compound name ROSIGLITAZONE, gender male and female, regimen Single dose, route oral, tissue Plasma. On the set-up: dose 8 mg, dose 2 mg, dose 1 mg, route oral.
The subject of data set [3] is Homo sapiens. Nature of the data set: Oral clearance of Rosiglitazone evaluated after oral or intravenous administration of C-14 Rosiglitazone Maleate. To be noted: in vivo, dosed compound id 5, dosed compound name ROSIGLITAZONE MALEATE.
Where [4] appears, read: dietary status Fasting, dose 2 mg.
Where [5] appears, read: dietary status Fasting, dose 8 mg.

As usually defined, the CL/F is the apparent clearance, not corrected for the fraction that reaches the circulation. Broadly, the Cmax is the maximum level reached in the sampled fluid or tissue. A word on the half-life: it is the time needed for the level to fall by half in the phase considered. On to `CN(CCOc1ccc(CC2SC(=O)NC2=O)cc1)c1ccccn1.O=C(O)/C=C\C(=O)O` (configuration not stated) [ROSIGLITAZONE MALEATE], for which the CL/F in the data set on Homo sapiens [1] (setting [4]) is 2.89 L/h; in the data set with Homo sapiens [1] (setting [5]), 2.85 L/h; with Homo sapiens [1] (dietary status Fed, dose 8 mg), 2.97 L/h; in data set [2], 50.5 mL/min. The t1/2 with Homo sapiens [1] (setting [4]) amounted to 3.15 h; in the data set on Homo sapiens [1] (setting [5]), 3.37 h; in the data set on Homo sapiens [1] (dietary status Fed, dose 8 mg), 3.59 h. Also, the “AUC(0 to inf)” value in the data set with Homo sapiens [1] (dietary status Fed) was 2890 ng·h/mL. For the same compound, the Cmax in the data set on Homo sapiens [1] (dietary status Fed) was determined as 432 ng/mL. In addition, in data set [2], the half-life is 3.16 h. In addition, the figures for the Excretion in the data set with Homo sapiens [3] (tissue Feaces) and in the data set on Homo sapiens [3] (tissue Urine) were 23% and 64%, respectively.
